For test [1], the target named is Recombinant human Syk (amino acids 342-635), GST-Syk kinase fusion protein (Homo sapiens (Human), UniProt P43405). Description: Syk Kinase Test (Kinase Glo Luminescence Kinase test).
Experimental: The catalytic activity of the GST-Syk kinase fusion protein was determined using the Kinase Glo® Luminescence Kinase test (Promega; V6712). In this homogeneous test the amount of ATP remaining after the kinase reaction is quantified by a luciferin-luciferase reaction using luminescence. The luminescence signal obtained correlates with the amount of ATP still present and thus correlates inversely with the activity of the protein kinase.
GST-Syk was diluted to 6.0 nM in the test buffer and 10 μl of this dilution were used in the kinase test (final concentration of Syk=4 nM in a total volume of 15 μl).
Positive controls are the reaction mixtures that contain no test substance; negative controls (blanks) are reaction mixtures that contain no kinase.
After 60 minutes, 10 μl Kinase-Glo® solution (Promega, Cat. #V6712) (heated to room temperature) were added to each well and incubation was continued for a further 15 minutes. The plates were read in a Microplate Scintillation and Luminescence Counter (Canberra Packard GmbH).
Data Evaluation and Calculation:
The output file of the “Counter” is a text file that contains the well number and measured counts in two columns. […] Based on this values the % inherent value for the measurement of each substance concentration was calculated using an “MS-Excel-VB macro”. […] The IC50 values were calculated from the % inhibition values using “GraphPadPrism” software (Version 5) (GraphPad Software Inc.).
In a further test the test system is patients with ITP. The conditions noted are these: single center open label study; cited from earlier work.
The mark [2] stands for this setting: read-out: IC50-value (+0.2% HSA in μM), +0.2% HSA.

Where two headings read alike, the source gives them in different places.

`Cc1nc2cc(-c3cc(O[C@H](C)[C@H]4CNC(=O)C4)c4cccnc4c3)ccc2n1C` [Example 105, (R)-4-((R)-1-(7-(1,2-dimethyl-1H-benzo[d]imidazol-5-yl)quinolin-5-yloxy)ethyl)pyrrolidin-2-one]: the IC50 in test [1] (setting [2]) was determined as 0.0002 µM.

For `Cc1nc2cc(-c3cc(O[C@H](C)[C@H]4CNC(=O)C4)c4cccnc4c3)ccc2[nH]1` [Example 109, (R)-4-((R)-1-(7-(2-methyl-1H-benzo[d]imidazol-5-yl)quinolin-5-yloxy)ethyl)pyrrolidin-2-one], the IC50 in test [1] (setting [2]) was found to be 0.0004 µM.

With `Cc1c(-c2cc(O[C@H](C)[C@H]3CNC(=O)C3)c3cccnc3c2)cnn1C` [Example 112, (R)-4-((R)-1-(7-(1,5-dimethyl-1H-pyrazol-4-yl)quinolin-5-yloxy)ethyl)pyrrolidin-2-one], the half-maximal inhibitory concentration (IC50) in test [1] (setting [2]) worked out at 0.0012 µM.

For `Cc1nc2ccc(-c3cc(O[C@H](C)[C@H]4CNC(=O)C4)c4cccnc4c3)cc2s1` [Example 85, (R)-4-((R)-1-(7-(2-methylbenzo[d]thiazol-6-yl)quinolin-5-yloxy)ethyl)pyrrolidin-2-one], the IC50 in test [1] (setting [2]) is 0.0002 µM.

For the compound `C[C@@H](Oc1cc(-c2ccccn2)cc2ncccc12)[C@H]1CNC(=O)C1` [Example 6, (R)-4-((R)-1-(7-(pyridin-2-yl)quinolin-5-yloxy)ethyl)pyrrolidin-2-one], the IC50 in test [1] (read-out: IC50-value (+0.2% BSA in μM), +0.2% BSA) is 0.0017 µM.

Turning to `C[C@@H](Oc1cc(-c2ccc3c(c2)CNCC3)cc2ncccc12)[C@H]1CNC(=O)C1` [Example 101, (R)-4-((R)-1-(7-(1,2,3,4-tetrahydroisoquinolin-7-yl)quinolin-5-yloxy)ethyl)pyrrolidin-2-one], the IC50 in test [1] (setting [2]) worked out at 0.0004 µM.

In the case of `COc1cc(-c2cc(O[C@H](C)[C@H]3CNC(=O)C3)c3cccnc3c2)ccc1C(F)(F)F` [Example 102, (R)-4-((R)-1-(7-(3-methoxy-4-(trifluoromethyl)phenyl)quinolin-5-yloxy)ethyl)pyrrolidin-2-one], the 50% inhibitory concentration (IC50) in test [1] (setting [2]) stood at 0.0045 µM.

`C[C@@H](Oc1cc(-c2ccc3c(c2)ncn3C)cc2ncccc12)[C@H]1CNC(=O)C1` [Example 94, (R)-4-((R)-1-(7-(1-methyl-1H-benzo[d]imidazol-5-yl)quinolin-5-yloxy)ethyl)pyrrolidin-2-one]: in test [1] (setting [2]), the IC50 stood at 0.0003 µM.

On to `COc1cc(Nc2ncc(F)c(Nc3ccc4c(n3)N(COP(=O)(O)O)C(=O)C(C)(C)O4)n2)cc(OC)c1OC` [Example R788], for which the platelet counts result with patients with ITP is recorded as “improved platelet counts”.

These data come from patent US8912173B2, “Substituted quinolines and their use as medicaments” (Boehringer Ingelheim International GmbH, priority 2011, dated 2014).
